13 molecules from US12365687B2 (Hoffmann-La Roche Inc., priority 2021, dated 2025) can be followed below.

Test [1] concerns the target human GABAA α1β3γ2 receptor (Homo sapiens (Human), UniProt P14867+P18507). The test can be described thus: Radioligand binding assay for γ2-containing GABAA subtypes, [3H]Flumazenil competition (α1β3γ2). To be noted: for γ2/γ1 Selectivity Ratio: Ki α1β3γ2 (nM)/Ki α2β2γ1 (nM); for LogSel: Log[Ki α1β3γ2 (nM)/Ki α2β2γ1 (nM)].
Test [2] deals with human GABAA α2β2γ1 receptor (Homo sapiens (Human), UniProt P47869+Q8N1C3). Nature of the test: Radioligand binding assay for γ1-containing GABAA subtypes, [3H]RO7239181 competition (α2β2γ1).
The target in test [3] is α2β2γ1 GABAA receptor subtype (Homo sapiens (Human), UniProt P47869+Q8N1C3). The test can be described thus: Two-electrode voltage clamp electrophysiology in Xenopus oocytes expressing GABAA receptors (modulation of GABA EC20 current). To be noted: for Efficacy (GABA)%: % modulation of GABA EC20 = 100*(Fold increase-1), α2β2γ1 oocytes, compound at approx. 30-fold Ki; for Fold increase h-GABA-A α2β2γ1 oocyte @ 30-fold Ki: Xenopus oocytes expressing α2β2γ1, compound at approx. 30-fold its Ki α2β2γ1, GABA EC20 current. It is filed as cell-based. The method in brief: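 Each concentration was tested on ≥3 oocytes held at −80 mV at room temperature, recorded 3-5 days post-injection. A control and a test response to EC20 GABA (1.5 min each) were superimposed and their point-by-point ratio taken. Peak ratio reported as % modulation of GABA EC20 = 100×(fold increase−1).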

The target in test [4] is human GABAA α5β2γ1 receptor (Homo sapiens (Human), UniProt P31644+Q8N1C3). Nature of the test: Radioligand binding assay for γ1-containing GABAA subtypes, [3H]RO7239181 competition (α5β2γ1).
Where [5] appears, read: Ki h-GABAA α2β2γ1, [3H]RO7239181 competition binding, human GABAA α2β2γ1.
The mark [6] stands for this setting: Ki h-GABAA α2β2γ1, displacement of [3H]RO7239181, membranes of HEK293F cells expressing human receptors, means of two determinations.

A value given as a limit tells only on which side of the number the result lay.

The term Ki denotes the equilibrium dissociation constant of an inhibitor or competing ligand from its target. A high value points to lower affinity. Take `C[C@@H]1N=C(c2ncccc2F)c2c(ccc(C(F)(F)F)c2Cl)-n2nc(C(=O)N3CC[C@H](F)C3)nc21` [Example 123, [(4S)-7-chloro-6-(3-fluoro-2-pyridyl)-4-methyl-8-(trifluoromethyl)-4H-[1,2,4]triazolo[1,5-a][1,4]benzodiazepin-2-yl]-[(3S)-3-fluoropyrrolidin-1-yl]methanone]: in test [1], the Ki is above 30000 nM, the “γ2/γ1 Selectivity Ratio” value was 326.6 and the LogSel stood at 2.51. Further, affinity in test [2] (setting [5]) was put at a Ki of 91.8 nM. This molecule yielded a Ki in test [2] (setting [6]) of 91.9 nM. Further, in test [3], the “Efficacy (GABA)%” value came out at 162% and the “Fold increase h-GABA-A α2β2γ1 oocyte @ 30-fold Ki” value stood at 2.62. This molecule displayed an inhibition constant Ki in test [4] of 9.75 nM.

In the case of `C[C@@H]1N=C(c2ncccc2F)c2c(ccc(C(F)(F)F)c2Cl)-n2nc(C(=O)N3CCS(=O)(=O)CC3)nc21` [Example 124, [(4S)-7-chloro-6-(3-fluoro-2-pyridyl)-4-methyl-8-(trifluoromethyl)-4H-[1,2,4]triazolo[1,5-a][1,4]benzodiazepin-2-yl]-(1,1-dioxo-1,4-thiazinan-4-yl)methanone], the Ki amounted to 14400 nM in test [1], 26.2 nM in test [2] (setting [5]), 26.2 nM in test [2] (setting [6]) and 6.32 nM in test [4]. For the same molecule, the “γ2/γ1 Selectivity Ratio” value in test [1] came out at 547.2. For the same molecule, the LogSel in test [1] was determined as 2.74. Also, in test [3], the “Efficacy (GABA)%” value was 145%. Besides, in test [3], the “Fold increase h-GABA-A α2β2γ1 oocyte @ 30-fold Ki” value is reported as 2.45.

`C[C@@H]1N=C(c2c(F)cccc2F)c2c(ccc(C(F)(F)F)c2Cl)-n2nc(NC(=O)NC3COC3)nc21` [Example 125, 1-[(4S)-7-chloro-6-(2,6-difluorophenyl)-4-methyl-8-(trifluoromethyl)-4H-[1,2,4]triazolo[1,5-a][1,4]benzodiazepin-2-yl]-3-(oxetan-3-yl)urea]: the Ki in test [1] came to 1600 nM; in test [2] (setting [5]), 6.2 nM; in test [2] (setting [6]), 6.19 nM; in test [4], 1.7 nM. Also, the “γ2/γ1 Selectivity Ratio” value in test [1] was determined as 259.0. Further, the LogSel in test [1] was determined as 2.41. Also, the “Efficacy (GABA)%” value in test [3] is given as 73%. Moreover, the “Fold increase h-GABA-A α2β2γ1 oocyte @ 30-fold Ki” value in test [3] is given as 1.73.

Turning to `C[C@@H]1N=C(c2c(F)cccc2F)c2c(ccc(C(F)(F)F)c2Cl)-n2nc(NC(=O)NC3CC3)nc21` [Example 126, 1-[(4S)-7-chloro-6-(2,6-difluorophenyl)-4-methyl-8-(trifluoromethyl)-4H-[1,2,4]triazolo[1,5-a][1,4]benzodiazepin-2-yl]-3-cyclopropyl-urea], in test [1], affinity was put at a Ki of 4600 nM, the “γ2/γ1 Selectivity Ratio” value worked out at 451.4 and the LogSel stood at 2.65. This molecule yielded a Ki in test [2] (setting [5]) of 10.2 nM. The molecule also came in with a Ki in test [2] (setting [6]) of 10.2 nM. In test [3], the “Efficacy (GABA)%” value was determined as 38% and the “Fold increase h-GABA-A α2β2γ1 oocyte @ 30-fold Ki” value worked out at 1.38. The same molecule had a Ki in test [4] of 3.23 nM.

For `COC1CN(C(=O)Nc2nc3n(n2)-c2ccc(C(F)(F)F)c(Cl)c2C(c2c(F)cccc2F)=N[C@H]3C)C1` [Example 127, N-[(4S)-7-chloro-6-(2,6-difluorophenyl)-4-methyl-8-(trifluoromethyl)-4H-[1,2,4]triazolo[1,5-a][1,4]benzodiazepin-2-yl]-3-methoxy-azetidine-1-carboxamide], the Ki in test [1] amounted to 4760 nM; in test [2] (setting [5]), 49.4 nM; in test [2] (setting [6]) it was 49.4 nM; in test [4] it was 5.46 nM. In addition, the “γ2/γ1 Selectivity Ratio” value in test [1] was 96.5. The LogSel in test [1] is recorded as 1.98. Further, the “Efficacy (GABA)%” value in test [3] amounted to 112%. The “Fold increase h-GABA-A α2β2γ1 oocyte @ 30-fold Ki” value in test [3] is reported as 2.12.

On to `C[C@@H]1N=C(c2c(F)cccc2F)c2c(ccc(C(F)(F)F)c2Cl)-n2nc(NC(=O)N3CC(F)C3)nc21` [Example 128, N-[(4S)-7-chloro-6-(2,6-difluorophenyl)-4-methyl-8-(trifluoromethyl)-4H-[1,2,4]triazolo[1,5-a][1,4]benzodiazepin-2-yl]-3-fluoro-azetidine-1-carboxamide], for which, in test [1], the Ki worked out at 3880 nM, the “γ2/γ1 Selectivity Ratio” value worked out at 111.4 and the LogSel is 2.05. In test [2] (setting [5]), this molecule returned a Ki of 34.8 nM. This molecule also gave a Ki in test [2] (setting [6]) of 34.9 nM. Also, in test [3], the “Efficacy (GABA)%” value is reported as 98% and the “Fold increase h-GABA-A α2β2γ1 oocyte @ 30-fold Ki” value worked out at 1.98. Besides, in test [4], the affinity, expressed as Ki, was 4.2 nM.

For the molecule `C[C@@H]1N=C(c2c(F)cccc2F)c2c(ccc(C(F)(F)F)c2Cl)-n2nc(NC(=O)N3CCS(=O)(=O)CC3)nc21` [Example 131, N-[(4S)-7-chloro-6-(2,6-difluorophenyl)-4-methyl-8-(trifluoromethyl)-4H-[1,2,4]triazolo[1,5-a][1,4]benzodiazepin-2-yl]-1,1-dioxo-1,4-thiazinane-4-carboxamide], in test [1], the Ki was 2430 nM, the “γ2/γ1 Selectivity Ratio” value worked out at 176.5 and the LogSel amounted to 2.25. The same molecule gave an inhibition constant Ki in test [2] (setting [5]) of 13.8 nM. Besides, the Ki in test [2] (setting [6]) came out at 13.8 nM. In test [3], the “Efficacy (GABA)%” value is on record as 104% and the “Fold increase h-GABA-A α2β2γ1 oocyte @ 30-fold Ki” value came out at 2.04. In test [4], the Ki is 3.38 nM.

Take `C[C@@H]1N=C(c2c(F)cccc2F)c2c(ccc(C(F)(F)F)c2Cl)-n2c(CO)cnc21` [Example 132, [(4S)-7-chloro-6-(2,6-difluorophenyl)-4-methyl-8-(trifluoromethyl)-4H-imidazo[1,2-a][1,4]benzodiazepin-1-yl]methanol]: in test [1], the Ki came to 2560 nM, the “γ2/γ1 Selectivity Ratio” value is reported as 75.8 and the LogSel was found to be 1.88. In addition, the Ki in test [2] (setting [5]) amounted to 33.8 nM. For the same molecule, in test [2] (setting [6]), the affinity, expressed as Ki, was 33.8 nM. Also, in test [3], the “Efficacy (GABA)%” value turned out to be 105% and the “Fold increase h-GABA-A α2β2γ1 oocyte @ 30-fold Ki” value is 2.05. This molecule came in with a Ki in test [4] of 2.63 nM.

For `C[C@@H]1N=C(c2c(F)cccc2F)c2c(ccc(C(F)(F)F)c2Cl)-n2c1nc1c2CCC1` [Example 133, (10S)-6-chloro-8-(2,6-difluorophenyl)-10-methyl-5-(trifluoromethyl)-1,9,12-triazatetracyclo[9.6.0.02,7.013,17]heptadeca-2,4,6,8,11,13(17)-hexaene], the Ki was determined as 827 nM in test [1], 23.3 nM in test [2] (setting [5]), 23.3 nM in test [2] (setting [6]) and 5.23 nM in test [4]. The “γ2/γ1 Selectivity Ratio” value in test [1] worked out at 35.5. Moreover, in test [1], the LogSel amounted to 1.55. Besides, the “Efficacy (GABA)%” value in test [3] is reported as 41%. The “Fold increase h-GABA-A α2β2γ1 oocyte @ 30-fold Ki” value in test [3] is 1.41.

Take `CC1CN(C(=O)c2nc3n(n2)-c2ccc(C(F)(F)F)c(Cl)c2C(c2ncccc2F)=N[C@H]3C)C1` [Example 135, [(4S)-7-chloro-6-(3-fluoro-2-pyridyl)-4-methyl-8-(trifluoromethyl)-4H-[1,2,4]triazolo[1,5-a][1,4]benzodiazepin-2-yl]-(3-methylazetidin-1-yl)methanone]: the Ki in test [1] was above 30000 nM; in test [2] (setting [5]), 50.6 nM; in test [2] (setting [6]), 50.6 nM; in test [4] it was 9.35 nM. Also, the “γ2/γ1 Selectivity Ratio” value in test [1] is 592.7. This molecule also showed a LogSel in test [1] of 2.77. In addition, the “Efficacy (GABA)%” value in test [3] was determined as 118%. Moreover, in test [3], the “Fold increase h-GABA-A α2β2γ1 oocyte @ 30-fold Ki” value is on record as 2.18.

For the molecule `Cc1cnc2n1-c1ccc(C(F)(F)F)c(Cl)c1C(c1ncccc1F)=N[C@H]2C` [Example 136, (4S)-7-chloro-6-(3-fluoro-2-pyridyl)-1,4-dimethyl-8-(trifluoromethyl)-4H-imidazo[1,2-a][1,4]benzodiazepine], in test [1], the Ki was found to be 6130 nM, the “γ2/γ1 Selectivity Ratio” value was 163.5 and the LogSel turned out to be 2.21. Also, the affinity in test [2] (setting [5]), expressed as Ki, was 37.5 nM. In test [2] (setting [6]), this molecule showed a Ki of 37.5 nM. In test [3], the “Efficacy (GABA)%” value amounted to 116% and the “Fold increase h-GABA-A α2β2γ1 oocyte @ 30-fold Ki” value came out at 2.16. The molecule also registered a Ki in test [4] of 6.22 nM.

For `C[C@@H]1N=C(c2ncccc2F)c2c(ccc(C(F)(F)F)c2Cl)-n2nc(C(=O)NCCO)nc21` [Example 138, (4S)-7-chloro-6-(3-fluoro-2-pyridyl)-N-(2-hydroxyethyl)-4-methyl-8-(trifluoromethyl)-4H-[1,2,4]triazolo[1,5-a][1,4]benzodiazepine-2-carboxamide], in test [1], the Ki was above 30000 nM, the “γ2/γ1 Selectivity Ratio” value was found to be 334.8 and the LogSel amounted to 2.52. Moreover, the Ki in test [2] (setting [5]) is 89.6 nM. In addition, in test [2] (setting [6]), the Ki turned out to be 89.6 nM. In test [3], the “Efficacy (GABA)%” value is reported as 204% and the “Fold increase h-GABA-A α2β2γ1 oocyte @ 30-fold Ki” value was 3.04. In addition, the Ki in test [4] amounted to 17.1 nM.

On to `Cc1cn2c(n1)[C@H](C)N=C(c1ncccc1F)c1c-2ccc(C(F)(F)F)c1Cl` [Example 139, (4S)-7-chloro-6-(3-fluoro-2-pyridyl)-2,4-dimethyl-8-(trifluoromethyl)-4H-imidazo[1,2-a][1,4]benzodiazepine], for which, in test [1], the Ki worked out at 3060 nM, the “γ2/γ1 Selectivity Ratio” value was 99.6 and the LogSel was 2.00. Further, the Ki in test [2] (setting [5]) worked out at 30.8 nM. Further, in test [2] (setting [6]), the affinity corresponds to a Ki of 30.8 nM. In test [3], the “Efficacy (GABA)%” value is reported as 149% and the “Fold increase h-GABA-A α2β2γ1 oocyte @ 30-fold Ki” value is recorded as 2.49. Also, the affinity in test [4], expressed as Ki, was 5.54 nM.
